Key:
cells [1] = settings: in vitro; cited from earlier work
cells [2] = type: cell-based
Source text: Another synthetic polymer that has been recently evaluated for its ability to mediate gene transfer is polyethyleneimine (PEI) which contains primary, secondary, and tertiary amines (Abdallah, B.; Hassan, A.; Benoist; Goula, D.; Behr, J. P.; Demeneix, B. A. Human Gene Therapy 1996, 7, 1947; Boussif, O.; Lezoualc'h, F.; Zanta, M. A.; Mergny, M. D., Scherman, D.; Demeneix, B.; Behr, J. P. Proc. Natl. Acad. Sci. USA 1995, 92, 7297). The advantage of PEI over polylysine as a mediator for gene transfer is that it contains a built-in mechanism for endosome escape. The overall protonation of PEI at pH=7 is approximately 20% whereas the overall protonation at pH=5 is approximately 45% (Suh, J.; Paik, H. J.; Hwang, B. K. Bioorg. Chem. 1994, 22, 318). […] In fact, PEI is capable of mediating gene transfer equal to the best lipid systems.

Row | Compound | concentration required to enhance transfection (cells [1]) | toxicity to cells in vitro (cells [2])
1 | OCC(O)CO [glycerol] | 1-1.5 M | 
2 | polyethyleneimine [PEI] |  | toxic to cells in vitro

Source: US6849272B1, “Endosomolytic agents and cell delivery systems” (Massachusetts Institute of Technology, priority 1999, dated 2005)
